Some test systems named below: SNB-19 CNS; SR leukemia; CCRF-CEM leukemia; IGROV1 ovarian; UO-31 renal; SK-MEL-5 melanoma; SF-539 CNS; OVCAR-4 ovarian; NCI-H522 lung; SNB-75 CNS; NCI-H226 lung; A498 renal; M14 melanoma; EKVX NSCLC; UACC-257 melanoma; MCF7 breast; MOLT-4 leukemia; PC-3 prostate; MALME-3M melanoma; NCI-H460 lung.
What all share (assay): inhibition of tumour cell growth, NCI panel, 48 h

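Values below derive from 48-hour exposures of cells grown in 96-well plates, with endpoints linearly interpolated between the two concentrations bracketing the appropriate inhibition level. TGI marks complete inhibition of growth.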

`COC(=O)C1=C(OC(=O)/C(=C/c2ccccc2)c2ccc(Cl)cc2)C(C(=O)OC)[C@@]2(O)[C@@H](C(=O)OC)[C@H](C)C[C@@H]1[C@@H]2C(=O)OC` (stereo not given in full): the TGI in the test with SNB-19 CNS, in the test on SR leukemia, in the test on CCRF-CEM leukemia, in the test with IGROV1 ovarian, in the test with UO-31 renal and in the test on SK-MEL-5 melanoma was above 100 µM each time. The TGI in the test on SF-539 CNS, in the test with OVCAR-4 ovarian, in the test with NCI-H522 lung, in the test on SNB-75 CNS, with NCI-H226 lung and with A498 renal was above 100 µM in each case. Further, the TGI with M14 melanoma, with EKVX NSCLC, in the test with UACC-257 melanoma, in the test with MCF7 breast, in the test with MOLT-4 leukemia and in the test on PC-3 prostate was above 100 µM each time. Also, the TGI with MALME-3M melanoma and with NCI-H460 lung was above 100 µM in each case.
On to `C[C@]12CC[C@H]3[C@@H](CC=C4C[C@@H](O)CC[C@@]43C)[C@@H]1C/C(=C/c1ccccc1)[C@@H]2O`, for which the TGI in the test with SNB-19 CNS is above 56.5 µM; in the test with SR leukemia, above 100 µM; in the test with CCRF-CEM leukemia, above 100 µM; in the test with IGROV1 ovarian, 43.9 µM; in the test on UO-31 renal, above 62 µM; in the test on SK-MEL-5 melanoma, above 100 µM. Also, the TGI in the test on SF-539 CNS was above 86.2 µM; in the test with OVCAR-4 ovarian, above 73.2 µM; in the test on NCI-H522 lung, above 100 µM; in the test with SNB-75 CNS, above 68.5 µM; in the test with NCI-H226 lung, 66.1 µM; in the test with A498 renal, 35.8 µM. Moreover, the TGI in the test on M14 melanoma is above 77.8 µM; with EKVX NSCLC it was above 70 µM; in the test with UACC-257 melanoma, 45.4 µM; in the test with MCF7 breast, above 68.2 µM; with MOLT-4 leukemia it was above 100 µM; with PC-3 prostate, above 57.2 µM. The TGI in the test with MALME-3M melanoma was 79.4 µM; in the test with NCI-H460 lung, above 100 µM.
Turning to `CCOC(=O)C1(C(=O)OCC)C[C@@H](C)[C@@H](O)C1`, the TGI in the test on SNB-19 CNS, in the test with SR leukemia, with CCRF-CEM leukemia, in the test with IGROV1 ovarian, in the test on UO-31 renal and with SK-MEL-5 melanoma was above 100 µM throughout. Further, the TGI in the test with SF-539 CNS, in the test on OVCAR-4 ovarian, with NCI-H522 lung, in the test on SNB-75 CNS, in the test on NCI-H226 lung and with A498 renal was above 100 µM throughout. Besides, the TGI in the test on M14 melanoma, in the test on EKVX NSCLC, in the test on UACC-257 melanoma, in the test on MCF7 breast, in the test on MOLT-4 leukemia and in the test with PC-3 prostate was above 100 µM throughout. In addition, the TGI with MALME-3M melanoma and in the test with NCI-H460 lung was above 100 µM throughout.
In the case of `Cc1occc1C(=S)Nc1ccc(Cl)c(/C=N/OC(C)(C)C)c1`, the TGI is 40.6 µM in the test with SNB-19 CNS; 35.6 µM with SR leukemia; 53.4 µM with CCRF-CEM leukemia; above 56.3 µM in the test on IGROV1 ovarian; 27 µM in the test with UO-31 renal; 33.4 µM in the test on SK-MEL-5 melanoma. For the same compound, the TGI is above 100 µM in the test on SF-539 CNS; 45 µM in the test with OVCAR-4 ovarian; 24.8 µM in the test on NCI-H522 lung; 56.7 µM in the test with SNB-75 CNS; 32.4 µM with NCI-H226 lung; 40.2 µM in the test on A498 renal. The TGI with M14 melanoma is 40.9 µM; with EKVX NSCLC, 43.3 µM; in the test on UACC-257 melanoma, 31.7 µM; in the test with MCF7 breast, 42.9 µM; with MOLT-4 leukemia it was 31.8 µM; in the test with PC-3 prostate, 33 µM. Moreover, the TGI in the test with MALME-3M melanoma is above 56.5 µM; in the test on NCI-H460 lung, 29.7 µM.
Consider `Cn1c(=O)c2c(nc3sc4c(n32)C(=O)c2c(O)ccc(O)c2C4=O)n(C)c1=O`, for which the TGI in the test on SNB-19 CNS was above 91.5 µM; with SR leukemia it was 3.23 µM; with CCRF-CEM leukemia, 1.9 µM; with IGROV1 ovarian, 25.4 µM; with UO-31 renal, 11.6 µM; in the test on SK-MEL-5 melanoma, 8.35 µM. Besides, the TGI in the test with SF-539 CNS is 15.6 µM; in the test on OVCAR-4 ovarian, 2.92 µM; in the test on NCI-H522 lung, 0.369 µM; in the test with SNB-75 CNS, 16.1 µM; in the test on NCI-H226 lung it was above 100 µM; in the test on A498 renal it was 57.4 µM. In addition, the TGI with M14 melanoma worked out at 6.48 µM; in the test on EKVX NSCLC, 33.8 µM; in the test on UACC-257 melanoma, 28.5 µM; in the test with MCF7 breast, 3.41 µM; in the test with MOLT-4 leukemia, 5.08 µM; with PC-3 prostate it was 26.7 µM. The values for the TGI with MALME-3M melanoma and in the test on NCI-H460 lung were 3.09 µM and above 59.4 µM, respectively.
`OC[P+](CO)(CO)C12CC3CC(CC(C3)C1)C2`: the TGI in the test with SNB-19 CNS is above 100 µM; in the test on SR leukemia it was above 82 µM; with CCRF-CEM leukemia it was 62.2 µM; in the test on IGROV1 ovarian, above 100 µM; in the test on UO-31 renal, above 100 µM; with SK-MEL-5 melanoma, above 100 µM. Also, the TGI in the test on SF-539 CNS, in the test with OVCAR-4 ovarian, with NCI-H522 lung, with SNB-75 CNS, with NCI-H226 lung and in the test on A498 renal was above 100 µM throughout. The TGI in the test with M14 melanoma was above 100 µM; in the test with EKVX NSCLC, above 100 µM; with UACC-257 melanoma, above 100 µM; with MCF7 breast it was above 100 µM; in the test on MOLT-4 leukemia, above 80.9 µM; in the test on PC-3 prostate, above 100 µM. Besides, the TGI in the test on MALME-3M melanoma and in the test with NCI-H460 lung was above 100 µM each time.
`NC(=O)c1ncn(C2OC(CO)C(O)C2O)c1NC=O` (stereo not given): the TGI in the test on SNB-19 CNS, in the test on SR leukemia, in the test on CCRF-CEM leukemia, with IGROV1 ovarian, with UO-31 renal and in the test on SK-MEL-5 melanoma was above 100 µM throughout. Moreover, the TGI in the test on SF-539 CNS, in the test on OVCAR-4 ovarian, in the test with NCI-H522 lung, in the test with SNB-75 CNS, in the test on NCI-H226 lung and in the test with A498 renal was above 100 µM in each case. Moreover, the TGI in the test with M14 melanoma, in the test with EKVX NSCLC, with UACC-257 melanoma, with MCF7 breast, in the test on MOLT-4 leukemia and in the test with PC-3 prostate was above 100 µM throughout. Moreover, the TGI in the test on MALME-3M melanoma and in the test on NCI-H460 lung was above 100 µM throughout.

These data come from PubChem BioAssay (NCI).
